This note sets out measurements from ChEMBL document CHEMBL1147029, “Probing binding requirements of NAD kinase with modified substrate (NAD) analogues” (Bioorg Med Chem Lett, 2007).

The target of assay [1] is T1, NAD kinase (Mycobacterium tuberculosis) (UniProt P9WHV7).
T1 sequence (whole entry): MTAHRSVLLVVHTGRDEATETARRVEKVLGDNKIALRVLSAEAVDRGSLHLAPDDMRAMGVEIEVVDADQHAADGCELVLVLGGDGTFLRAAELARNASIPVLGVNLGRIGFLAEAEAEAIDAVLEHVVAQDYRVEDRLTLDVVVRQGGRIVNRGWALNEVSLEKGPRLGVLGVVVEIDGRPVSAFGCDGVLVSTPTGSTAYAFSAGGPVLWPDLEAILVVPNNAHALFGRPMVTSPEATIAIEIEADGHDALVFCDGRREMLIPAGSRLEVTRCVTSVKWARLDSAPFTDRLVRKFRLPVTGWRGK
Put plainly: Inhibition of Mycobacterium tuberculosis NAD kinase at 2 mM.

Assay [2] addresses T1, NAD kinase (Mycobacterium tuberculosis). Put plainly: Inhibition of Mycobacterium tuberculosis NAD kinase at 1 mM.

As a reminder, the inhibition is the drop in the measured response relative to a control, in per cent.

For the compound `NC(=O)c1cccc([C@@H]2O[C@H](COP(=O)(O)OP(=O)(O)OC[C@H]3O[C@@H](n4cnc5c(N)ncnc54)[C@H](O)[C@@H]3O)[C@@H](O)[C@H]2O)c1`, the figures for the inhibition in assay [1] and in assay [2] were 37% and less than 10%, respectively. The compound `O=C(CBr)c1ccccn1` gave an inhibition in assay [2] of 63%.

Compound `NC(=O)c1ccc[n+]([C@@H]2O[C@H](COP(=O)(O)OP(=O)(O)OC[C@H]3O[C@@H](n4cnc5c(N)ncnc54)[C@@H](F)[C@@H]3O)[C@@H](O)[C@H]2O)c1` displayed an inhibition in assay [2] of less than 10%. `NC(=O)c1ccc[n+]([C@@H]2O[C@H](COP(=O)(O)OP(=O)(O)OC[C@H]3O[C@@H](n4cnc5c(N)ncnc54)[C@H](F)[C@@H]3O)[C@@H](O)[C@H]2O)c1` had an inhibition in assay [2] of less than 10%.

`O=C(CBr)c1ccncc1` registered an inhibition in assay [2] of 40%. In assay [2], `O=C(CBr)c1cccnc1` gave an inhibition of 30%. Same read-out and setting: the same measure for `NC(=O)c1ccc[n+]([C@@H]2O[C@H](COP(=O)(O)OP(=O)(O)OC[C@H]3O[C@@H](n4cnc5c(N)ncnc54)[C@@H](O)[C@@H]3O)[C@@H](O)[C@H]2O)c1`: 40%.
